Results as given in US12478624B2, “Heterocyclic derivatives, pharmaceutical compositions and their use in the treatment or amelioration of cancer” (Tolremo Therapeutics AG, priority 2019, dated 2025).

Columns and labels:
OPM-2 = experiment: Assay 2: multiple myeloma cellular efficacy, PrestoBlue cell proliferation/survival; type: cell-based; settings: Homo sapiens, 96 h, OPM-2 cells, 4 days
Procedure, shortened: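 Cells seeded at 10000/well and exposed to a compound dose range or vehicle for 4 days, then stained with PrestoBlue for 2 h at 37 °C. Fluorescence was background-subtracted and normalized to vehicle; EC50 came from a four-parameter variable-slope fit against log concentration.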

BRD1 = biological target: T1, BRD1 (Homo sapiens, UniProt O95696); experiment: BromoKdMAX (BROMOscan, DiscoverX); type: binding
T1 construct: T7 phage strains displaying bromodomains were grown in parallel; purchased DiscoverX; host or cells: T7 phage in an E. coli host derived from the BL21 strain
T1 sequence (O95696 562-666 limits assumed): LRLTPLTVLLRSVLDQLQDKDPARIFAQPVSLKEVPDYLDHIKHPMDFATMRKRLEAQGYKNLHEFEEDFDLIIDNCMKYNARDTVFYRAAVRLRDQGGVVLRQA
Protocol: (§1) A BromoKdMAX was performed at DiscoverX.
(§2) BROMOscan™ is a novel industry leading platform for identifying small molecule bromodomain inhibitors. Based on proven KINOMEscan™ technology, BROMOscan™ employs a proprietary ligand binding site-directed competition assay to quantitatively measure interactions between test compounds and bromodomains. This robust and reliable assay panel is suitable for high throughput screening and delivers quantitative ligand binding data to facilitate the identification and optimization of potent and selective small molecule bromodomain inhibitors.
(§3) For the Bromodomain assays, T7 phage strains displaying bromodomains were grown in parallel in 24-well blocks in an E. coli host derived from the BL21 strain. E. coli were grown to log-phase and infected with T7 phage from a frozen stock (multiplicity of infection=0.4) and incubated with shaking at 32° C. until lysis (90-150 minutes). The lysates were centrifuged (5,000×g) and filtered (0.2 μm) to remove cell debris. […] The liganded beads were blocked with excess biotin and washed with blocking buffer (SeaBlock (Pierce), 1% BSA, 0.05% Tween 20, 1 mM DTT) to remove unbound ligand and to reduce non-specific phage binding. […] Test compounds were prepared as 1000× stocks in 100% DMSO. Kds were determined using an 11-point 3-fold compound dilution series with one DMSO control point. […] The compounds were then diluted directly into the assays such that the final concentration of DMSO was 0.09%. All reactions performed in polypropylene 384-well plates. Each was a final volume of 0.02 ml. […] The bromodomain concentration in the eluates was measured by qPCR.

BRPF1 = biological target: T2, BRPF1 (Homo sapiens, UniProt P55201); experiment: BromoKdMAX (BROMOscan, DiscoverX); type: binding
T2 construct: T7 phage strains displaying bromodomains were grown in parallel; purchased DiscoverX; host or cells: T7 phage in an E. coli host derived from the BL21 strain
T2 sequence (P55201 628-732 limits assumed): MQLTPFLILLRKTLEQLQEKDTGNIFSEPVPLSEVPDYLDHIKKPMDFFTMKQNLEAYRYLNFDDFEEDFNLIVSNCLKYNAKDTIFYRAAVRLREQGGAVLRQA
Protocol: as §1, §2, §3

BRPF3 = biological target: T3, BRPF3 (Homo sapiens, UniProt Q9ULD4); experiment: BromoKdMAX (BROMOscan, DiscoverX); type: binding
T3 construct: T7 phage strains displaying bromodomains were grown in parallel; purchased DiscoverX; host or cells: T7 phage in an E. coli host derived from the BL21 strain
T3 sequence (Q9ULD4 589-693 limits assumed): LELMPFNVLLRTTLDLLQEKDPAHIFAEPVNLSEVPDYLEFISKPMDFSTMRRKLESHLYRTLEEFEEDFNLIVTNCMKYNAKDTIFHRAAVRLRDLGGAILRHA
Protocol: as §1, §2, §3

BAZ2A = biological target: T4, BAZ2A (Homo sapiens, UniProt Q9UIF9); experiment: BromoKdMAX (BROMOscan, DiscoverX); type: binding
T4 construct: T7 phage strains displaying bromodomains were grown in parallel; purchased DiscoverX; host or cells: T7 phage in an E. coli host derived from the BL21 strain
T4 sequence (Q9UIF9 1793-1897 limits assumed): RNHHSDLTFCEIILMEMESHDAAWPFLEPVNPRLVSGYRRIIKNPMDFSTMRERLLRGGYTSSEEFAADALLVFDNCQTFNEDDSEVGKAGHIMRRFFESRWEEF
Protocol: as §1, §2, §3

PBRM1(5) = biological target: T5, PBRM1(5) (Homo sapiens, UniProt Q86U86); experiment: BromoKdMAX (BROMOscan, DiscoverX); type: binding
T5 construct: T7 phage strains displaying bromodomains were grown in parallel; purchased DiscoverX; host or cells: T7 phage grown in E. coli host derived from BL21
T5 sequence (Q86U86 653-763 limits assumed): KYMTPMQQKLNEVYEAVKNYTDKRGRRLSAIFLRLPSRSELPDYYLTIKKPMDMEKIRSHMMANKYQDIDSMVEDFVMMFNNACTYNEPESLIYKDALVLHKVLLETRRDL
Protocol: as §1, §2, §3

BRD3(1) = biological target: T6, BRD3(1) (Homo sapiens, UniProt Q15059); experiment: BromoKdMAX (BROMOscan, DiscoverX); type: binding
T6 construct: T7 phage strains displaying bromodomains were grown in parallel; purchased DiscoverX; host or cells: T7 phage in an E. coli host derived from the BL21 strain
T6 sequence (Q15059 34-140 limits assumed): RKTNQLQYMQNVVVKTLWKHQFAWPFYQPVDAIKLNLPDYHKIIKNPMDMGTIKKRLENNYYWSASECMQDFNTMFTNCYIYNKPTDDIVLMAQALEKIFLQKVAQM
Protocol: as §1, §2, §3

GCN5L2 = biological target: T7, GCN5L2 (Homo sapiens, UniProt Q92830); experiment: BromoKdMAX (BROMOscan, DiscoverX); type: binding; settings: GCN5L2 (KAT2A)
T7 construct: T7 phage strains displaying bromodomains were grown in parallel; purchased DiscoverX; host or cells: T7 phage grown in E. coli host derived from BL21
T7 sequence (Q92830 728-832 limits assumed): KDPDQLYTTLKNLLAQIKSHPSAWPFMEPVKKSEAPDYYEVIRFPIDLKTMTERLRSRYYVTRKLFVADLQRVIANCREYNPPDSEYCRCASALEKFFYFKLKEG
Protocol: as §1, §2, §3

BRD8(2) = biological target: T8, BRD8(2) (Homo sapiens, UniProt Q9H0E9); experiment: BromoKdMAX (BROMOscan, DiscoverX); type: binding
T8 construct: T7 phage strains displaying bromodomains were grown in parallel; purchased DiscoverX; host or cells: T7 phage in an E. coli host derived from the BL21 strain
T8 sequence (Q9H0E9 1099-1207 limits assumed): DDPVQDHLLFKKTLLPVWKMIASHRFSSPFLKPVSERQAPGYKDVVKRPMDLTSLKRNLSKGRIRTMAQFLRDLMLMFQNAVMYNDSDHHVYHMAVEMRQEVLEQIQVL
Protocol: as §1, §2, §3

BRD7 = biological target: T9, BRD7 (Homo sapiens, UniProt Q9NPI1); experiment: BromoKdMAX (BROMOscan, DiscoverX); type: binding
T9 construct: T7 phage strains displaying bromodomains were grown in parallel; purchased DiscoverX; host or cells: T7 phage in an E. coli host derived from the BL21 strain
T9 sequence (Q9NPI1 131-235 limits assumed): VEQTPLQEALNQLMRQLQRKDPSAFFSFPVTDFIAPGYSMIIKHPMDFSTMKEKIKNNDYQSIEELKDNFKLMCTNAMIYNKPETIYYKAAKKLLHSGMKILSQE
Protocol: as §1, §2, §3

BRD3(2) = biological target: T10, BRD3(2) (Homo sapiens, UniProt Q15059); experiment: BromoKdMAX (BROMOscan, DiscoverX); type: binding
T10 construct: T7 phage strains displaying bromodomains were grown in parallel; purchased DiscoverX; host or cells: T7 phage in an E. coli host derived from the BL21 strain
T10 sequence (Q15059 306-415 limits assumed): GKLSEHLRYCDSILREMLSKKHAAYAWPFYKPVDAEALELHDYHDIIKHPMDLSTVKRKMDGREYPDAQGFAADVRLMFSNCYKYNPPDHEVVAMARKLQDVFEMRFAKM
Protocol: as §1, §2, §3

BRDT(2) = biological target: T11, BRDT(2) (Homo sapiens, UniProt Q58F21); experiment: BromoKdMAX (BROMOscan, DiscoverX); type: binding
T11 construct: T7 phage strains displaying bromodomains were grown in parallel; purchased DiscoverX; host or cells: T7 phage in an E. coli host derived from the BL21 strain
Protocol: as §1, §2, §3

BRDT(1) = biological target: T12, BRDT(1) (Homo sapiens, UniProt Q58F21); experiment: BromoKdMAX (BROMOscan, DiscoverX); type: binding
T12 construct: T7 phage strains displaying bromodomains were grown in parallel; purchased DiscoverX; host or cells: T7 phage in an E. coli host derived from the BL21 strain
Protocol: as §1, §2, §3

BRD3(1, 2) = biological target: T13, BRD3(1, 2) (Homo sapiens, UniProt Q15059); experiment: BromoKdMAX (BROMOscan, DiscoverX); type: binding
T13 construct: T7 phage strains displaying bromodomains were grown in parallel; purchased DiscoverX; host or cells: T7 phage in an E. coli host derived from the BL21 strain
T13 sequence (Q15059 24-416 limits assumed): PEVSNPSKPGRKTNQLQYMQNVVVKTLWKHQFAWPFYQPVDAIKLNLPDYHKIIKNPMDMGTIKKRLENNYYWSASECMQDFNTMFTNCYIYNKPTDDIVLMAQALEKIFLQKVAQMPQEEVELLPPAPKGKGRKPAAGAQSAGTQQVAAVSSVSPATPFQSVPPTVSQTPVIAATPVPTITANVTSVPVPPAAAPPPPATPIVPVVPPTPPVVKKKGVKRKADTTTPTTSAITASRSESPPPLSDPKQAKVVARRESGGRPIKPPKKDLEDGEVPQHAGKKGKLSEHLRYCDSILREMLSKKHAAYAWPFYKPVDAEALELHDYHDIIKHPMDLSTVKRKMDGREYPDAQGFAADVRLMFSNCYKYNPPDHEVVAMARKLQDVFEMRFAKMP
Protocol: as §1, §2, §3

BRDT(1, 2) = biological target: T14, BRDT(1, 2) (Homo sapiens, UniProt Q58F21); experiment: BromoKdMAX (BROMOscan, DiscoverX); type: binding
T14 construct: T7 phage strains displaying bromodomains were grown in parallel; purchased DiscoverX; host or cells: T7 phage in an E. coli host derived from the BL21 strain
Protocol: as §1, §2, §3

TRIM24(Bromo.) = biological target: T15, TRIM24(Bromo.) (Homo sapiens, UniProt O15164); experiment: BromoKdMAX (BROMOscan, DiscoverX); type: binding
T15 construct: T7 phage strains displaying bromodomains were grown in parallel; purchased DiscoverX; host or cells: T7 phage grown in E. coli host derived from BL21
T15 sequence (O15164 899-1004 limits assumed): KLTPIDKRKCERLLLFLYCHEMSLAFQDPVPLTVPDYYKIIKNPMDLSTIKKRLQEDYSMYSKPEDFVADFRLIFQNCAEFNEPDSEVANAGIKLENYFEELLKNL
Protocol: as §1, §2, §3

PCAF = biological target: T16, PCAF (Homo sapiens, UniProt Q92831); experiment: BromoKdMAX (BROMOscan, DiscoverX); type: binding; settings: PCAF (KAT2B)
T16 construct: T7 phage strains displaying bromodomains were grown in parallel; purchased DiscoverX; host or cells: T7 phage grown in E. coli host derived from BL21
T16 sequence (Q92831 723-827 limits assumed): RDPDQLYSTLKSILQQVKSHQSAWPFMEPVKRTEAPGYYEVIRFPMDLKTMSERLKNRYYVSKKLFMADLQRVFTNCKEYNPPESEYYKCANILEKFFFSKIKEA
Protocol: as §1, §2, §3

BRD9 = biological target: T17, BRD9 (Homo sapiens, UniProt Q9H8M2); experiment: BromoKdMAX (BROMOscan, DiscoverX); type: binding
T17 construct: T7 phage strains displaying bromodomains were grown in parallel; purchased DiscoverX; host or cells: T7 phage in an E. coli host derived from the BL21 strain
T17 sequence (Q9H8M2 136-240 limits assumed): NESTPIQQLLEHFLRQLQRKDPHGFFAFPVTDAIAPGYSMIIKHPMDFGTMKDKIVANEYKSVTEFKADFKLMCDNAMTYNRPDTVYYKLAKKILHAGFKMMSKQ
Protocol: as §1, §2, §3

ATAD2A = biological target: T18, ATAD2A (Homo sapiens, UniProt Q6PL18); experiment: BromoKdMAX (BROMOscan, DiscoverX); type: binding
T18 construct: T7 phage strains displaying bromodomains were grown in parallel; purchased DiscoverX; host or cells: T7 phage in an E. coli host derived from the BL21 strain
T18 sequence (Q6PL18 980-1092 limits assumed): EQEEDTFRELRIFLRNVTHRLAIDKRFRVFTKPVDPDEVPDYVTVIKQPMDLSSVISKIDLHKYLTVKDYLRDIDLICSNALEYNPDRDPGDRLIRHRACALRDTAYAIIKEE
Protocol: as §1, §2, §3

BAZ2B = biological target: T19, BAZ2B (Homo sapiens, UniProt Q9UIF8); experiment: BromoKdMAX (BROMOscan, DiscoverX); type: binding
T19 construct: T7 phage strains displaying bromodomains were grown in parallel; purchased DiscoverX; host or cells: T7 phage in an E. coli host derived from the BL21 strain
T19 sequence (Q9UIF8 2060-2164 limits assumed): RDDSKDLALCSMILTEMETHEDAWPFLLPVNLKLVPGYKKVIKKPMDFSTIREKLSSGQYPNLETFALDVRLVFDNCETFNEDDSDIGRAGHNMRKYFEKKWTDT
Protocol: as §1, §2, §3

PBRM1(2) = biological target: T20, PBRM1(2) (Homo sapiens, UniProt Q86U86); experiment: BromoKdMAX (BROMOscan, DiscoverX); type: binding
T20 construct: T7 phage strains displaying bromodomains were grown in parallel; purchased DiscoverX; host or cells: T7 phage grown in E. coli host derived from BL21
T20 sequence (Q86U86 177-287 limits assumed): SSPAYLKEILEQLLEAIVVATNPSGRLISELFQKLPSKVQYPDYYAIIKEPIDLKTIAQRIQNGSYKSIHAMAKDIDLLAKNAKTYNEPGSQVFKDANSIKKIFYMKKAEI
Protocol: as §1, §2, §3

SMARCA2 = biological target: T21, SMARCA2 (Homo sapiens, UniProt P51531); experiment: BromoKdMAX (BROMOscan, DiscoverX); type: binding
T21 construct: T7 phage strains displaying bromodomains were grown in parallel; purchased DiscoverX; host or cells: T7 phage grown in E. coli host derived from BL21
T21 sequence (P51531 1378-1506 limits assumed): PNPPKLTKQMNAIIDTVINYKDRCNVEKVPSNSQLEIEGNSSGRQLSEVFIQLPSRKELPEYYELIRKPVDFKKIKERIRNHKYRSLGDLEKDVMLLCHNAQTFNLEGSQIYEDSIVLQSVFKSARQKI
Protocol: as §1, §2, §3

BRD8(1) = biological target: T22, BRD8(1) (Homo sapiens, UniProt Q9H0E9); experiment: BromoKdMAX (BROMOscan, DiscoverX); type: binding
T22 construct: T7 phage strains displaying bromodomains were grown in parallel; purchased DiscoverX; host or cells: T7 phage in an E. coli host derived from the BL21 strain
T22 sequence (Q9H0E9 706-811 limits assumed): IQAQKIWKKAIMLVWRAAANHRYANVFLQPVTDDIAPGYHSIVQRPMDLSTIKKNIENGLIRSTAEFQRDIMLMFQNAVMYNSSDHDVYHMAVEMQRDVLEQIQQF
Protocol: as §1, §2, §3

WDR9(2) = biological target: T23, WDR9(2) (Homo sapiens, UniProt Q9NSI6); experiment: BromoKdMAX (BROMOscan, DiscoverX); type: binding; settings: WDR9(2) (BRWD1)
T23 construct: T7 phage strains displaying bromodomains were grown in parallel; purchased DiscoverX; host or cells: T7 phage grown in E. coli host derived from BL21
T23 sequence (Q9NSI6 1313-1418 limits assumed): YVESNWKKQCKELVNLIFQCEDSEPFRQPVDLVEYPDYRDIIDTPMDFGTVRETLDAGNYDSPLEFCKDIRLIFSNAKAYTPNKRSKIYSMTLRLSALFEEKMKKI
Protocol: as §1, §2, §3

TAF1L(2) = biological target: T24, TAF1L(2) (Homo sapiens, UniProt Q8IZX4); experiment: BromoKdMAX (BROMOscan, DiscoverX); type: binding
T24 construct: T7 phage strains displaying bromodomains were grown in parallel; purchased DiscoverX; host or cells: T7 phage grown in E. coli host derived from BL21
T24 sequence (Q8IZX4 1517-1626 limits assumed): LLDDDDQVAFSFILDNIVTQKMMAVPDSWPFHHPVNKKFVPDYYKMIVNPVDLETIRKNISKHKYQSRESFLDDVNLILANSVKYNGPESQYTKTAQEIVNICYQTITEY
Protocol: as §1, §2, §3

TAF1(2) = biological target: T25, TAF1(2) (Homo sapiens, UniProt P21675); experiment: BromoKdMAX (BROMOscan, DiscoverX); type: binding
T25 construct: T7 phage strains displaying bromodomains were grown in parallel; purchased DiscoverX; host or cells: T7 phage grown in E. coli host derived from BL21
T25 sequence (P21675 1519-1628 limits assumed): as the sequence (Q8IZX4 1517-1626 limits assumed) above, with M46V, V51M, I102V, I107L counted along it
Protocol: as §1, §2, §3

FALZ = biological target: T26, FALZ (Homo sapiens, UniProt Q12830); experiment: BromoKdMAX (BROMOscan, DiscoverX); type: binding; settings: FALZ (BPTF)
T26 construct: T7 phage strains displaying bromodomains were grown in parallel; purchased DiscoverX; host or cells: T7 phage grown in E. coli host derived from BL21
Protocol: as §1, §2, §3

SMARCA4 = biological target: T27, SMARCA4 (Homo sapiens, UniProt P51532); experiment: BromoKdMAX (BROMOscan, DiscoverX); type: binding
T27 construct: T7 phage strains displaying bromodomains were grown in parallel; purchased DiscoverX; host or cells: T7 phage grown in E. coli host derived from BL21
T27 sequence (P51532 1453-1564 limits assumed): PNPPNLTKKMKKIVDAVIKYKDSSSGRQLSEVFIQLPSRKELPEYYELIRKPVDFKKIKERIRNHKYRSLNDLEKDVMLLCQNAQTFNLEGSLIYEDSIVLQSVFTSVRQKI
Protocol: as §1, §2, §3

TRIM24(PHD, Bromo.) = biological target: T28, TRIM24(PHD, Bromo.) (Homo sapiens, UniProt O15164); experiment: BromoKdMAX (BROMOscan, DiscoverX); type: binding
T28 construct: TRIM24(PHD, Bromo.); purchased DiscoverX; host or cells: T7 phage grown in E. coli host derived from BL21
T28 sequence (O15164 824-1006 limits assumed): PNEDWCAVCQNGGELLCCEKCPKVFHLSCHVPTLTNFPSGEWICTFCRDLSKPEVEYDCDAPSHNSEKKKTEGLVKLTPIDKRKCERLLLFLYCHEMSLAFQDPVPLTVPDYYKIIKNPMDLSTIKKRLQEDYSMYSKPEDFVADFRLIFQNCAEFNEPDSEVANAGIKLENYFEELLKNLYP
Protocol: as §1, §2, §3

CECR2 = biological target: T29, CECR2 (Homo sapiens, UniProt Q9BXF3); experiment: BromoKdMAX (BROMOscan, DiscoverX); type: binding
T29 construct: T7 phage strains displaying bromodomains were grown in parallel; purchased DiscoverX; host or cells: T7 phage grown in E. coli host derived from BL21
T29 sequence (Q9BXF3 434-538 limits assumed): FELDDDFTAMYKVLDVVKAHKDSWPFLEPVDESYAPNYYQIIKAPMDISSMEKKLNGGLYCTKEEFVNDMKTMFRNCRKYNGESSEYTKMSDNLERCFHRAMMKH
Protocol: as §1, §2, §3

ATAD2B = biological target: T30, ATAD2B (Homo sapiens, UniProt Q9ULI0); experiment: BromoKdMAX (BROMOscan, DiscoverX); type: binding
T30 construct: T7 phage strains displaying bromodomains were grown in parallel; purchased DiscoverX; host or cells: T7 phage in an E. coli host derived from the BL21 strain
T30 sequence (Q9ULI0 951-1066 limits assumed): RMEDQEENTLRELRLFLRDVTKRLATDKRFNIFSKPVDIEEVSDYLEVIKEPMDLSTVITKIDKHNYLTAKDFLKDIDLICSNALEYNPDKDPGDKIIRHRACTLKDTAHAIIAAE
Protocol: as §1, §2, §3

COc1cncc(-c2cc(Nc3cccc(F)c3)nc([C@@H]3CC[C@H](C)N(C(C)=O)C3)n2)c1 [Compound 00004]
< 0.2 µM: EC50 (OPM-2)
> 10 µM: Kd (BRD1) | Kd (BRPF1) | Kd (BRPF3) | Kd (BAZ2A) | Kd (PBRM1(5)) | Kd (BRD3(1)) | Kd (GCN5L2) | Kd (BRD8(2)) | Kd (BRD7) | Kd (BRD3(2)) | Kd (BRDT(2)) | Kd (BRDT(1)) | Kd (BRD3(1, 2)) | Kd (BRDT(1, 2)) | Kd (TRIM24(Bromo.)) | Kd (PCAF) | Kd (BRD9) | Kd (ATAD2A) | Kd (BAZ2B) | Kd (PBRM1(2)) | Kd (SMARCA2) | Kd (BRD8(1)) | Kd (WDR9(2)) | Kd (TAF1L(2)) | Kd (TAF1(2)) | Kd (FALZ) | Kd (SMARCA4) | Kd (TRIM24(PHD, Bromo.)) | Kd (CECR2) | Kd (ATAD2B)
